Reference: patent US20090155209A1, “NOVEL MACROCYCLIC INHIBITORS OF HEPATITIS C VIRUS REPLICATION” (priority 2007, published 2009)

Legend:
[1] = target: T1, NS3-NS4 (Hepatitis C virus genotype 1a, UniProt P27958); assay: NS3-NS4 activity, IC50 (Example 37, Table 8); assay type: biochemical
[2] = target: T1, NS3-NS4; assay: cell-based; details: EC50, NS3-NS4 activity

T1 sequence (P27958 1027-1657): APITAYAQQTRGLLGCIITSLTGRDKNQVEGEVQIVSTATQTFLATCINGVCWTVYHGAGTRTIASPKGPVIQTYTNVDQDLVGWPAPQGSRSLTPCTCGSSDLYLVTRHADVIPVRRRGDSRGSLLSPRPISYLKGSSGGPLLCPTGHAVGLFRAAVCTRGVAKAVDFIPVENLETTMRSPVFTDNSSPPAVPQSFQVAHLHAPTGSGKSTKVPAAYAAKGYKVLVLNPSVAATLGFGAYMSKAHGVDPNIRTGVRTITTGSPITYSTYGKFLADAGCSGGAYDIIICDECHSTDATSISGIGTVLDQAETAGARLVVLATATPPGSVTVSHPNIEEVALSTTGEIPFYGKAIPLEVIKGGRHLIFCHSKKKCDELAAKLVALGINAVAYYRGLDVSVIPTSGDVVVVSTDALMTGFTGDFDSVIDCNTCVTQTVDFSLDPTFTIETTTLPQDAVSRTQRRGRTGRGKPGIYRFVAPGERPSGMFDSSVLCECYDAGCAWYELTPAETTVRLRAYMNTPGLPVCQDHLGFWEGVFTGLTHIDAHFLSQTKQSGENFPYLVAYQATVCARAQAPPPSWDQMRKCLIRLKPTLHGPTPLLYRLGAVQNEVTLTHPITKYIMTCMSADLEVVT
T1 sequence (P27958 1658-1711): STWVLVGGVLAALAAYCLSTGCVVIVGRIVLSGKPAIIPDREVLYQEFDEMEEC

Row | SMILES | IC50 [1] [nM] | EC50 [2] [nM]
1 | Cc1ccc(S(=O)(=O)NC(=O)[C@@]23C[C@H]2/C=C\CCCCC[C@H](NC(=O)OC(C)(C)C)C(=O)N2C[C@H](OC(=O)N4Cc5cccc(F)c5C4)C[C@H]2C(=O)N3)s1 [Compound 538] | < 100 | < 100
2 | Cc1cccc(CS(=O)(=O)NC(=O)[C@@]23C[C@H]2/C=C\CCCCC[C@H](NC(=O)OC(C)(C)C)C(=O)N2C[C@H](OC(=O)N4Cc5cccc(F)c5C4)C[C@H]2C(=O)N3)c1 [Compound 514] | < 100 | 100 to 1000
3 | COc1cccc(ONC(=O)[C@@]23C[C@H]2/C=C\CCCCC[C@H](NC(=O)OC(C)(C)C)C(=O)N2C[C@H](OC(=O)N4Cc5cccc(F)c5C4)C[C@H]2C(=O)N3)c1 [Compound 708] | < 100 | 1000 to 10000
4 | O=C(N[C@H]1CCCCC/C=C\[C@@H]2C[C@@]2(C(=O)NS(=O)(=O)c2ccc(Cl)cc2)NC(=O)[C@@H]2C[C@@H](OC(=O)N3Cc4cccc(F)c4C3)CN2C1=O)OC1CCC1 [Compound 339] | < 100 | < 100
5 | O=C(N[C@H]1CCCCC/C=C\[C@@H]2C[C@@]2(C(=O)NS(=O)(=O)C2CC2)NC(=O)[C@@H]2C[C@@H](OC(=O)N3Cc4cccc(F)c4C3)CN2C1=O)OC1(C2CC2)CC1 [Compound 446] | < 100 | < 100
6 | Cc1ccc(S(=O)(=O)NC(=O)[C@@]23C[C@H]2/C=C\CCCCC[C@H](NC(=O)OC(C)(C)C)C(=O)N2C[C@H](OC(=O)N4Cc5cccc(F)c5C4)C[C@H]2C(=O)N3)cc1Cl [Compound 312] | < 100 | 100 to 1000
7 | O=C1N[C@]2(C(=O)NS(=O)(=O)C3CC3)C[C@H]2/C=C\CCCCC[C@H](Nc2nc(-c3ccc(C(F)(F)F)cc3)cs2)C(=O)N2C[C@H](OC(=O)N3Cc4cccc(F)c4C3)C[C@@H]12 [Compound 216] | < 100 | < 100
8 | Cc1ccc(S(=O)(=O)NC(=O)[C@@]23C[C@H]2/C=C\CCCCC[C@H](NC(=O)OC(C)(C)C)C(=O)N2C[C@H](OC(=O)N4Cc5cccc(F)c5C4)C[C@H]2C(=O)N3)cc1F [Compound 301, (2R,6S,13aS,14aR,16aS,Z)-6-(tert-butoxycarbonylamino)-14a-(3-fluoro-4-methylphenylsulfonylcarbamoyl)-5,16-dioxo-1,2,3,5,6,7,8,9,10,11,13a,14,14a,15,16,16a-hexadecahydrocyclopropa[e]pyrrolo[1,2-a][1,4]diazacyclopentadecin-2-yl 4-fluoroisoindoline-2-carboxylate] | < 100 | < 100
9 | O=C1N[C@]2(C(=O)NS(=O)(=O)C3CC3)C[C@H]2/C=C\CCCCC[C@H](Nc2nc(-c3ccc(Br)cc3)cs2)C(=O)N2C[C@H](OC(=O)N3Cc4cccc(F)c4C3)C[C@@H]12 [Compound 220] | < 100 | < 100
10 | CC(C)(C)ONC(=O)[C@@]12C[C@H]1/C=C\CCCCC[C@H](NC(=O)OC(C)(C)C)C(=O)N1C[C@H](OC(=O)N3Cc4cccc(Cl)c4C3)C[C@H]1C(=O)N2 [Compound 108] | < 100 | < 100
11 | CC(C)(C)OC(=O)N[C@H]1CCCCC/C=C\[C@@H]2C[C@@]2(C(=O)NS(=O)(=O)c2c(F)cccc2F)NC(=O)[C@@H]2C[C@@H](OC(=O)N3Cc4ccccc4C3)CN2C1=O [Compound 364] | < 100 | 100 to 1000
12 | O=C1N[C@]2(C(=O)NS(=O)(=O)C3CC3)C[C@H]2/C=C\CCCCC[C@H](Nc2nc(-c3cccc(F)c3)cs2)C(=O)N2C[C@H](OC(=O)N3Cc4cccc(F)c4C3)C[C@@H]12 [Compound 215] | < 100 | < 100
13 | Cc1ccc(C)c(S(=O)(=O)NC(=O)[C@@]23C[C@H]2/C=C\CCCCC[C@H](NC(=O)OC(C)(C)C)C(=O)N2C[C@H](OC(=O)N4Cc5cccc(F)c5C4)C[C@H]2C(=O)N3)c1 [Compound 313] | < 100 | < 100
14 | Cc1ccc(C)c(ONC(=O)[C@@]23C[C@H]2/C=C\CCCCC[C@H](NC(=O)OC(C)(C)C)C(=O)N2C[C@H](OC(=O)N4Cc5cccc(F)c5C4)C[C@H]2C(=O)N3)c1 [Compound 713] | < 100 | 1000 to 10000
15 | CC(C)(C)OC(=O)N[C@H]1CCCCC/C=C\[C@@H]2C[C@@]2(C(=O)NS(=O)(=O)Cc2cc(Cl)ccc2Cl)NC(=O)[C@@H]2C[C@@H](OC(=O)N3Cc4cccc(F)c4C3)CN2C1=O [Compound 525] | < 100 | 100 to 1000
16 | O=C1N[C@]2(C(=O)NS(=O)(=O)C3CC3)C[C@H]2/C=C\CCCCC[C@H](Nc2nc(-c3ccc(F)cn3)cs2)C(=O)N2C[C@H](OC(=O)N3Cc4cccc(Cl)c4C3)C[C@@H]12 [Compound 228] | < 100 | < 100
17 | CC(C)(C)OC(=O)N[C@H]1CCCCC/C=C\[C@@H]2C[C@@]2(C(=O)NOCc2ccc(C(F)(F)F)cc2)NC(=O)[C@@H]2C[C@@H](OC(=O)N3Cc4cccc(F)c4C3)CN2C1=O [Compound 105, (2R,6S,13aS,14aR,16aS,Z)-6-(tert-butoxycarbonylamino)-5,16-dioxo-14a-(4-(trifluoromethyl)benzyloxycarbamoyl)-1,2,3,5,6,7,8,9,10,11,13a,14,14a,15,16,16a-hexadecahydrocyclopropa[e]pyrrolo[1,2-a][1,4]diazacyclopentadecin-2-yl 4-fluoroisoindoline-2-carboxylate] | < 100 | 10000 to 50000

Row | SMILES | IC50 [1] [nM] | EC50 [2] [nM]
18 | O=C(N[C@H]1CCCCC/C=C\[C@@H]2C[C@@]2(C(=O)NS(=O)(=O)C2CC2)NC(=O)[C@@H]2C[C@@H](OC(=O)N3Cc4cccc(Cl)c4C3)CN2C1=O)OC1CCC1 [Compound 433] | < 100 | < 100
19 | Cc1ccccc1S(=O)(=O)NC(=O)[C@@]12C[C@H]1/C=C\CCOCC[C@H](NC(=O)OC(C)(C)C)C(=O)N1C[C@H](OC(=O)N3Cc4cccc(Cl)c4C3)C[C@H]1C(=O)N2 [Compound 321, (2R,6S,13aS,14aR,16aSZ)-6-(tert-butoxycarbonylamino)-5,16-dioxo-14a-(o-tolylsulfonylcarbamoyl)-2,3,5,6,7,8,10,11,13a,14,14a,15,16,16a-tetradecahydro-1H-cyclopropa[j]pyrrolo[1,2-f][1,6,9]oxadiazacyclopentadecin-2-yl 4-chloroisoindoline-2-carboxylate] | < 100 | < 100
20 | CC(C)(C)OC(=O)N[C@H]1CCCCC/C=C\[C@@H]2C[C@@]2(C(=O)NS(=O)(=O)Cc2ccccc2Cl)NC(=O)[C@@H]2C[C@@H](OC(=O)N3Cc4cccc(F)c4C3)CN2C1=O [Compound 510] | < 100 | < 100
21 | CC(C)(C)OC(=O)N[C@H]1CCCCC/C=C\[C@@H]2C[C@@]2(C(=O)NS(=O)(=O)Cc2cc(F)ccc2F)NC(=O)[C@@H]2C[C@@H](OC(=O)N3Cc4cccc(F)c4C3)CN2C1=O [Compound 520] | < 100 | < 100
22 | CCC(C)(C)OC(=O)N[C@H]1CCCCC/C=C\[C@@H]2C[C@@]2(C(=O)NS(=O)(=O)c2cc(Cl)sc2Cl)NC(=O)[C@@H]2C[C@@H](OC(=O)N3Cc4cccc(F)c4C3)CN2C1=O [Compound 344] | < 100 | < 100
23 | Cc1ccc(C)c(ONC(=O)[C@@]23C[C@H]2CCCCCCC[C@H](NC(=O)OC(C)(C)C)C(=O)N2C[C@H](OC(=O)N4Cc5cccc(F)c5C4)C[C@H]2C(=O)N3)c1 [Compound 806] | < 100 | 1000 to 10000
24 | Cc1cc(C)cc(ONC(=O)[C@@]23C[C@H]2/C=C\CCCCC[C@H](NC(=O)OC(C)(C)C)C(=O)N2C[C@H](OC(=O)N4Cc5cccc(F)c5C4)C[C@H]2C(=O)N3)c1 [Compound 715] | < 100 | 1000 to 10000
25 | CCC(C)(C)OC(=O)N[C@H]1CCCCC/C=C\[C@@H]2C[C@@]2(C(=O)NS(=O)(=O)C2CC2)NC(=O)[C@@H]2C[C@@H](OC(=O)N3Cc4cccc(F)c4C3)CN2C1=O [Compound 431] |  | < 100
26 | CCC(C)(C)OC(=O)N[C@H]1CCCCC/C=C\[C@@H]2C[C@@]2(C(=O)NS(=O)(=O)C2CC2)NC(=O)[C@@H]2C[C@@H](OC(=O)N3Cc4cccc(F)c4C3)CN2C1=O [Compound 438] |  | 100 to 1000
27 | CC(C)(C)OC(=O)N[C@H]1CCCCC/C=C\[C@@H]2C[C@@]2(C(=O)NOCC2CC2)NC(=O)[C@@H]2C[C@@H](OC(=O)N3Cc4cccc(F)c4C3)CN2C1=O [Compound 102, (2R,6S,13aS,14aR,16aS,Z)-6-(tert-butoxycarbonylamino)-14a-(cyclopropylmethoxycarbamoyl)-5,16-dioxo-1,2,3,5,6,7,8,9,10,11,13a,14,14a,15,16,16a-hexadecahydrocyclopropa[e]pyrrolo[1,2-a][1,4]diazacyclopentadecin-2-yl 4-fluoroisoindoline-2-carboxylate] |  | < 100
28 | CC(C)(C)OC(=O)N[C@H]1CCCCC/C=C\[C@@H]2C[C@@]2(C(=O)NS(=O)(=O)c2ccc(Cl)s2)NC(=O)[C@@H]2C[C@@H](OC(=O)N3Cc4cccc(F)c4C3)CN2C1=O [Compound 323] |  | < 100
29 | Cc1ccccc1ONC(=O)[C@@]12C[C@H]1/C=C\CCCCC[C@H](NC(=O)OC(C)(C)C)C(=O)N1C[C@H](OC(=O)N3Cc4cccc(F)c4C3)C[C@H]1C(=O)N2 [Compound 701] | < 100 | 
30 | CC(C)(C)ONC(=O)[C@@]12C[C@H]1/C=C\CCCCC[C@H](NC(=O)OC(C)(C)C)C(=O)N1C[C@H](OC(=O)N3Cc4cccc(F)c4C3)C[C@H]1C(=O)N2 [Compound 103, (2R,6S,13aS,14aR,16aS,Z)-14a-(tert-butoxycarbamoyl)-6-(tert-butoxycarbonylamino)-5,16-dioxo-1,2,3,5,6,7,8,9,10,11,13a,14,14a,15,16,16a-hexadecahydrocyclopropa[e]pyrrolo[1,2-a][1,4]diazacyclopentadecin-2-yl 4-fluoroisoindoline-2-carboxylate] |  | < 100
31 | CC(C)(C)OC(=O)N[C@H]1CCCCCCC[C@@H]2C[C@@]2(C(=O)NS(=O)(=O)Cc2ccc(C(F)(F)F)cc2C(F)(F)F)NC(=O)[C@@H]2C[C@@H](OC(=O)N3Cc4cccc(F)c4C3)CN2C1=O [Compound 633] | < 100 | 
32 | CC(C)(C)OC(=O)N[C@H]1CCCCC/C=C\[C@@H]2C[C@@]2(C(=O)NOCC2CC2)NC(=O)[C@@H]2C[C@@H](OC(=O)N3Cc4cccc(F)c4C3)CN2C1=O [Compound 717] | < 100 | 
33 | CC(C)(C)OC(=O)N[C@H]1CCCCCCC[C@@H]2C[C@@]2(C(=O)NS(=O)(=O)Cc2ccc(Cl)c(Cl)c2)NC(=O)[C@@H]2C[C@@H](OC(=O)N3Cc4cccc(F)c4C3)CN2C1=O [Compound 627] | < 100 | 
